Converted amounts (≈) assume the structure as drawn.
Tested on: KB
Experiment: Cytotoxicity against human KB cells
Assay type: functional, cell-based

Structure (SMILES) | IC50 [µg/mL]
C[C@H](C[C@@H](O)[C@@H]1OC1(C)C)[C@@H]1CC[C@]2(C)[C@]34O[C@@H]3C[C@H]3C(C)(C)C(=O)CC[C@]3(C)[C@H]4CC[C@@]12C [DYVARIABILIN B] | 10 (≈ 21.2 µM)
C[C@H](C[C@@H](O)[C@@H]1OC1(C)C)[C@@H]1CC[C@]2(C)[C@@]34O[C@H]3C[C@H]3C(C)(C)C(=O)CC[C@]3(C)[C@H]4CC[C@@]12C [DYVARIABILIN C] | 8.7 (≈ 18.4 µM)
C[C@H](C[C@@H](O)[C@@H]1OC1(C)C)[C@@H]1CC[C@]2(C)C3=CC[C@H]4C(C)(C)C(=O)CC[C@]4(C)[C@H]3CC[C@@]12C [NILOTICIN] | 8.4 (≈ 18.4 µM)

Source: ChEMBL document CHEMBL1155702, “New tirucallane-type triterpenes from Dysoxylum variabile” (J Nat Prod, 2001)
